The first assay concerns the target T1, GST-tagged truncated human mutant G2019S LRRK2 (Homo sapiens, UniProt Q5S007, G2019S).
T1 construct: GST-tagged truncated human mutant G2019S LRRK2; purchased Life Technologies Corporation (Carlsbad, CA)
The assay is described as follows: LRRK2 G2019S Km ATP LanthaScreen assay. It counts as biochemical. To be noted: 134 μM ATP (Km ATP), LRRKtide substrate, mean of several tests. The protocol: Unless otherwise noted, all reactions are magnetically stirred. Unless otherwise noted, when diethyl ether is used in the experiments described below, it is Fisher ACS certified material and is stabilized with BHT. Unless otherwise noted, “concentrated” and/or “solvent removed under reduced pressure” means evaporating the solvent from a solution or mixture using a rotary evaporator or vacuum pump. Unless otherwise noted, flash chromatography is carried out on a Teledyne Isco (Lincoln, NE), Analogix (Burlington, WI), or Biotage (Stockholm, SWE) automated chromatography system using a commercially available cartridge as the column. Columns may be purchased from Teledyne Isco, Analogix, Biotage, Varian (Palo Alto, CA), or Supelco (Bellefonte, PA) and are usually filled with silica gel as the stationary phase. Reverse phase prep-HPLC conditions, where used, can be found at the end of each experimental section. Aqueous solutions were concentrated on a Genevac (Ipswich, ENG) or by freeze-drying/lyophilization. Unless otherwise noted, all LRRK2 pIC50 data presented in tables refers to the LRRK2 G2019S Km ATP LanthaScreen™ assay (Life Technologies Corp., Carlsbad, CA) that is described in the Biological Assay section.
Biological Assay: LRRK2 Km ATP LanthaScreen™ Assay
The LRRK2 kinase activity reported herein as IC50 values was determined with LanthaScreen™ technology from Life Technologies Corporation (Carlsbad, CA) using GST-tagged truncated human mutant G2019S LRRK2 in the presence of the fluorescein-labeled peptide substrate LRRKtide, also from Life Technologies. The data presented for the Km ATP LanthaScreen™ Assay represents mean IC50 values based on several test results and may have reasonable deviations depending on the specific conditions and reagents used. Assays were performed in the presence of 134 μM ATP (Km ATP). Upon completion, the assay was stopped and phosphorylated substrate detected with a terbium (Tb)-labeled anti-pERM antibody (cat. no. PV4898). The compound dose response was prepared by diluting a 10 mM stock of compound to a maximum concentration of 9.99 μM in 100% dimethylsulfoxide followed by custom fold serial dilution in dimethylsulfoxide nine times. Twenty nanoliters of each dilution was spotted via a Labcyte Echo onto a 384-well black-sided plate (Corning 3575) followed by 15 μl of a 1.25 nM enzyme solution in 1× assay buffer (50 mM Tris pH 8.5, 10 mM MgCl2, 0.01% Brij-35, 1 mM EGTA, 2 mM dithiothreitol, 0.05 mM sodium orthovanadate). Following a 15-minute incubation at room temperature, the kinase reaction was started with the addition of 5 μl of 400 nM fluorescein-labeled LRRKtide peptide substrate and 134 μM ATP solution in 1× assay buffer. The reaction was allowed to progress at ambient temperature for 90 minutes. The reaction was then stopped by the addition of 20 μl of TR-FRET Dilution Buffer (Life Technologies, Carlsbad, CA) containing 2 nM Tb-labeled anti-phospho LRRKtide antibody and 10 mM EDTA (Life Technologies, Carlsbad, CA). After an incubation of 1 hour at room temperature, the plate was read on an EnVision multimode plate reader (Perkin Elmer, Waltham, MA) with an excitation wavelength of 337 nm (Laser) and a reading emission at both 520 and 495 nm. Compound IC50s were interpolated from nonlinear regression best fits of the log of the final compound concentration, plotted as a function of the 520/495-nm emission ratio using Activity base. Abase uses a 4 parameter (4P) logistic fit based on the Levenberg-Marquardt algorithm.
A general note: TR-FRET usually uses a lanthanide donor and a delayed reading to cut background.
T1 sequence (Q5S007 970-2527 G2019S limits assumed): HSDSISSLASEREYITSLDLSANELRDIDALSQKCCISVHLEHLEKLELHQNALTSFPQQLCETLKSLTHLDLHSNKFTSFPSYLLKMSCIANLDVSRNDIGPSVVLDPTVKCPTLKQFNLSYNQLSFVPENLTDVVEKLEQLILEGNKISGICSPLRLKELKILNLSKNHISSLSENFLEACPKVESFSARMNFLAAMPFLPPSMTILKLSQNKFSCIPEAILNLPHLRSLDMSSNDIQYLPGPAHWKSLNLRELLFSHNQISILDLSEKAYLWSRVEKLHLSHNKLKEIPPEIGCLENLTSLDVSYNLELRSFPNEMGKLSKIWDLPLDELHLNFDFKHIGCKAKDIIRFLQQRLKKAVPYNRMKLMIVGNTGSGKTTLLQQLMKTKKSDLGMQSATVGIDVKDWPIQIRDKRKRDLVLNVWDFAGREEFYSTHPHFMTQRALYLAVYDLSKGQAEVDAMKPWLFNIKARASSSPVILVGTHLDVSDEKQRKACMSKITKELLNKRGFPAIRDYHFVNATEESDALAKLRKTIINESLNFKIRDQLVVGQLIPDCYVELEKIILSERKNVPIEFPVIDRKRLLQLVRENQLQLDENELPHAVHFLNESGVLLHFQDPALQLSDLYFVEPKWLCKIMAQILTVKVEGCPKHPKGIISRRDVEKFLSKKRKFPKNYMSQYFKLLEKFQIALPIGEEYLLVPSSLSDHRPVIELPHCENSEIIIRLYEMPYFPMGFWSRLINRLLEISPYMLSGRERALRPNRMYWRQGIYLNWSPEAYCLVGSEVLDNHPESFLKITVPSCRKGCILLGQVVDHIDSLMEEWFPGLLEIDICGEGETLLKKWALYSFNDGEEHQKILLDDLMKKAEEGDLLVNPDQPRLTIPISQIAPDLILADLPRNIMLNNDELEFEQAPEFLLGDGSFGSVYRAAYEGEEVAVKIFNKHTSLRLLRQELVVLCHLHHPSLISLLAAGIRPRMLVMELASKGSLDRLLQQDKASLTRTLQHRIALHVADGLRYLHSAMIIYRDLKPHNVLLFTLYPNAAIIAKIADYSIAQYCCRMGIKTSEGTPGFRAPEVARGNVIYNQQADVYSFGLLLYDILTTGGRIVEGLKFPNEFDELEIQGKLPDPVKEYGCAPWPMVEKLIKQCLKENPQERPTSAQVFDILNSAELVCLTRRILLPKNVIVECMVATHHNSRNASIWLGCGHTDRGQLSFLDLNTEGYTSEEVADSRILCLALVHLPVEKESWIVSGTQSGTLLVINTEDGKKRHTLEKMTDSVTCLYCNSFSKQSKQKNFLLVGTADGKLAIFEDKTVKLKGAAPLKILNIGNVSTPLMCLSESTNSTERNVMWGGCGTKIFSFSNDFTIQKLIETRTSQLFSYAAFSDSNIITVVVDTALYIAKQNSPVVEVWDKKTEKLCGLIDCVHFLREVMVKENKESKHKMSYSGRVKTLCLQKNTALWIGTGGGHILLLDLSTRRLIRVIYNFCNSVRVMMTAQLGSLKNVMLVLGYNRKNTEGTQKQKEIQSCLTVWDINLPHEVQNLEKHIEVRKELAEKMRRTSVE
Take `CC1(O)CC2(CN(c3cc4cc(NC(=O)C5CC5)ncc4cc3Cl)C2)C1` [Ex-4.5]: the “LRRK2 pIC50” value is 7.72.
Same read-out and setting: in the case of `O=C(Nc1cc2cc(N3CCc4[nH]ncc4C3)c(Cl)cc2cn1)C1CC1` [Ex-4.3] it was 7.85; in that of `COCCC(=O)Nc1cc2cc(N3CCN(C4(C)COCC4O)CC3)c(Cl)cc2cn1` (stereo not shown) [Ex-9.1], 8.12.
Take `CCC1C(C(=O)Nc2cc3cc(N4CCC(F)(C#N)CC4)c(Cl)cc3cn2)C1c1cnn(C)c1` (stereo not shown) [Ex-4.10]: the “LRRK2 pIC50” value was 7.29.

Still in this assay, the particulars now being: 134 μM ATP (Km ATP), LRRKtide substrate, mean of several tests, read-out: LRRK2 pIC50 (converted).
In the case of `CC1C(C(=O)Nc2cc3cc(N4CCN(C5(C)CCOC5)CC4)c(Cl)cc3cn2)C1c1cnn(C)c1` (single isomer, unassigned) [Ex-9.8], the IC50 is 4.9 nM.
On the same count and under the same terms, under `COC1COCC1(C)N1CCN(c2cc3cc(NC(=O)C4CC45CCOCC5)ncc3cc2Cl)CC1` (single isomer, unassigned) [Ex-5.3] stands 0.372 nM; under `CC1(N2CCN(c3cc4cc(NC(=O)C5CC56CC6(F)F)ncc4cc3Cl)CC2)COCC1O` (single isomer, unassigned) [Ex-3.1, (1R,3R or 1R,3S, 1S,3R, 1S,3S)-N-(7-chloro-6-(4-((3R,4R or 3S,4S)-4-hydroxy-3-methyltetrahydrofuran-3-yl)piperazin-1-yl)isoquinolin-3-yl)-4,4-difluorospiro[2.2]pentane-1-carboxamide], 0.977 nM; under `Cc1cc2cnc(NC(=O)C3CC34CCOC4)cc2cc1N1CCN(C2(C)COCC2O)CC1` (single isomer, unassigned) [Ex-6.9, (1R, 3S or 1S,3R, or 1R,3S, or 1S,3S)-N-(6-(4-((3R, 4R or 3S,4S)-4-hydroxy-3-methyltetrahydrofuran-3-yl)piperazin-1-yl)-7-methylisoquinolin-3-yl)-5-oxaspiro[2.4]heptane-1-carboxamide], 324 nM.
The same measure, in the same setting: in the case of `N#CC1CCN(c2cc3cc(NC(=O)C4CC4c4cncnc4)ncc3cc2Cl)CC1` (single isomer, unassigned) [Ex-5.18] it was 67.6 nM; in that of `CC1(N2CCN(c3cc4cc(NC(=O)C5CCC5c5ccccn5)ncc4cc3Cl)CC2)COCC1O` (single isomer, unassigned) [Ex-11.5, (1R,2R or 1S,2S)-N-(7-chloro-6-(4-((3R,4R or 3S,4S)-4-hydroxy-3-methyltetrahydrofuran-3-yl)piperazin-1-yl)isoquinolin-3-yl)-2-(pyridin-2-yl)cyclobutane-1-carboxamide], 0.0813 nM; in that of `CC1(N2CCN(c3cc4cc(NC(=O)C5CCC5C#N)ncc4cc3Cl)CC2)COCC1F` (single isomer, unassigned) [Ex-10.67, (1R,2R or 1S,2S)-N-[7-chloro-6-[4-((3R,4R or 3S,4S)-4-fluoro-3-methyl-tetrahydrofuran-3-yl)piperazin-1-yl]-3-isoquinolyl]-2-cyano-cyclobutanecarboxamide], 0.102 nM.
As for `CC(C)Cn1nccc1C1CC1C(=O)Nc1cc2cc(N3CCN(C4(C)COCC4O)CC3)c(Cl)cc2cn1` (single isomer, unassigned) [Ex-10.19, (1R,2R or 1S,2S)-N-[7-chloro-6-[4-((3R,4R or 3S,4S)-4-hydroxy-3-methyl-tetrahydrofuran-3-yl)piperazin-1-yl]-3-isoquinolyl]-2-(2-isobutylpyrazol-3-yl)cyclopropanecarboxamide], the IC50 was 42.7 nM.
Still for that read-out and setting: in the case of `O=C(Nc1cc2cc(N3CCN(C4COCC4O)CC3)c(Cl)cc2cn1)C1CC1` (single isomer, unassigned) [Ex-1.3, (3R,4R or 3S,4S)-N-(7-chloro-6-(4-(4-hydroxytetrahydrofuran-3-yl)piperazin-1-yl)isoquinolin-3-yl)cyclopropanecarboxamide] it was 1.95 nM; in that of `Cc1cc2cnc(NC(=O)C3CC34CCOC4)cc2cc1N1CCN(C2(C)COCC2O)CC1` (single isomer, unassigned) [Ex-6.4, (1R, 3S or 1S,3R, or 1R,3S, or 1S,3S)-N-(6-(4-((3R, 4R or 3S,4S)-4-hydroxy-3-methyltetrahydrofuran-3-yl)piperazin-1-yl)-7-methylisoquinolin-3-yl)-5-oxaspiro[2.4]heptane-1-carboxamide], 1.07 nM; in that of `COC1COCC1N1CCN(c2cc3cc(NC(=O)C4CC45CCOCC5)ncc3cc2Cl)CC1` (single isomer, unassigned) [Ex-5.9], 1510 nM.
The same measure, in the same setting: under `Cc1cc2cnc(NC(=O)C3C(C)C3c3cnn(C)c3)cc2cc1N1CCN(C2(C)CCOC2)CC1` (single isomer, unassigned) [Ex-9.14] stands 0.0813 nM; under `CC1(N2CCN(c3cc4cc(NC(=O)C5CC56CCOCC6)ncc4cc3Cl)CC2)CCOC1` (single isomer, unassigned) [Ex-5.11], 2.45 nM.
Take `CC1(C2CCOC2)CC1C(=O)Nc1cc2cc(N3CCN(C4(C)COCC4O)CC3)c(Cl)cc2cn1` (single isomer, unassigned) [Ex-10.82, (1R,2R or 1S,2S, or 1R,2S, or 1S,2R)-N-[7-chloro-6-[4-((3R,4R or 3S,4S)-4-hydroxy-3-methyl-tetrahydrofuran-3-yl)piperazin-1-yl]-3-isoquinolyl]-2-methyl-2-tetrahydrofuran-3-yl-cyclopropanecarboxamide]: the IC50 is 0.1 nM.
For `Cc1cc2cnc(NC(=O)C3CC3c3ccccn3)cc2cc1N1CCN(C2(C)COCC2F)CC1` (single isomer, unassigned) [Ex-6.13], the IC50 is 0.0813 nM.
As for `O=C(Nc1cc2cc(N3CCN(C4COCC4O)CC3)c(Cl)cc2cn1)C1CC12CCOCC2` (single isomer, unassigned) [Ex-2.8, (R or S)-N-(7-chloro-6-(4-((3R,4R or 3S,4S)-4-hydroxytetrahydrofuran-3-yl)piperazin-1-yl)isoquinolin-3-yl)-6-oxaspiro[2.5]octane-1-carboxamide], the IC50 is 24 nM.
The same measure, in the same setting: under `Cn1ncc(C2CC2C(=O)Nc2cc3cc(N4CCN(C5(C)CCOC5)CC4)c(Cl)cc3cn2)c1C(F)(F)F` (single isomer, unassigned) [Ex-10.28, (1R,2R or 1S,2S)-N-[7-chloro-6-[4-((R or S)-3-methyltetrahydrofuran-3-yl)piperazin-4-ium-1-yl]-3-isoquinolyl]-2-[1-methyl-5-(trifluoromethyl)pyrazol-4-yl]cyclopropanecarboxamide] stands 56.2 nM.
Turning to `Cn1ccc(C2CC2C(=O)Nc2cc3cc(N4CCN(C5(C)COCC5F)CC4)c(Cl)cc3cn2)n1` (single isomer, unassigned) [Ex-10.18, (1R,2R or 1S,2S)-N-[7-chloro-6-[4-((3R,4R or 3S,4S)-4-fluoro-3-methyl-tetrahydrofuran-3-yl)piperazin-1-yl]-3-isoquinolyl]-2-(1-methylpyrazol-3-yl)cyclopropanecarboxamide], the IC50 is 8.71 nM.
Still for that read-out and setting: in the case of `CC1(N2CCN(c3cc4cc(NC(=O)C5CC56CCCOC6)ncc4cc3Cl)CC2)COCC1O` (single isomer, unassigned) [Ex-1.14, (1R,3S, or 1R,3R, or 1S,3S, or 1S,3R)-N-(7-chloro-6-(4-((3R,4R or 3S,4S)-4-hydroxy-3-methyltetrahydrofuran-3-yl)piperazin-1-yl)isoquinolin-3-yl)-5-oxaspiro[2.5]octane-1-carboxamide] it was 0.603 nM; in that of `Cc1cc2cnc(NC(=O)C3CC34CCOCC4)cc2cc1N1CCN(C2(C)COCC2O)CC1` (single isomer, unassigned) [Ex-6.1], 0.355 nM; in that of `CC1(N2CCN(c3cc4cc(NC(=O)C5CC56CCOCC6)ncc4cc3Cl)CC2)COCC1C#N` (racemic) [Ex-18.1], 0.912 nM.

These data come from patent publication US12516039B2, “N-linked isoquinoline amides as LRRK2 inhibitors, pharmaceutical compositions, and uses thereof” (Merck Sharp & Dohme LLC, priority 2020, dated 2026).
